Measured values: paper PMC9695592, “Phenotypic Evaluation of Nucleoside Analogues against Trypanosoma cruzi Infection: In Vitro and In Vivo Approaches” (Molecules, 2022)
Where two headings read alike, the source gives them in different places.

How the values were obtained:
[1] = tested on: L929 cells; test: Toxicity on L929 cells (AlamarBlue); assay type: cell-based; settings: Mus musculus, L929, 168 h; seven days of compound incubation; 95% confidence interval in brackets
From the text: (§1) L929 cell lines were used to evaluate the effect of the nucleoside derivatives on the cellular viability of mammalian host cells and to assess their activity against intracellular forms of T. cruzi (Tulahuen strain expressing E. coli β-galactosidase gene, DTU VI) as reported. 2D and 3D culture systems of rat cardiomyoblast cell lines (H9C2(2-1)) were used to evaluate cardiotoxicity and to test the derivatives’ activity on intracellular forms (Y strain, DTU II). In all assays, the cell cultures were maintained at 37 °C under an atmosphere of 5% CO2.
(§2) L929 cells seeded in sterile 96-well microtiter plates were exposed or not to increasing concentrations (up to 200 µM) of the compounds. After seven days of incubation, the cell growth of treated cultures was compared to untreated control cells (100% cell growth). Cellular viability was assessed through AlamarBlue® (resazurin sodium salt) colorimetric assay, and the results were expressed as % reduction in cell growth/viability compared to untreated control, and an IC50 value determined. For the assays using H9C2 cultures, 25 × 10^3 cells/well were seeded in a 96-well microtiter plates (flat and U bottoms, precoated with agarose 1% for preparing 2- and 3D matrices, respectively) and maintained at 37 °C [48, 54].

[2] = tested on: H9C2 3D cultures; test: Cardiotoxicity on H9C2 organoids (3D), PrestoBlue; assay type: cell-based, rat; settings: 95% confidence interval in brackets
From the text: as §1, §2
The cardiac cultures were exposed or not to increasing concentrations of the nucleoside derivatives (up to 300 µM), and after seven days of incubation, their physiology and morphology was evaluated by light microscopy. Cell viability was measured using the PrestoBlue® (PB) colorimetric assay, the results evaluated as % reduction in cell growth/viability compared to untreated control, and an IC50 value determined. The data results from at least two independent experiments done in at least duplicates.

[3] = tested on: intracellular forms of T. cruzi (Y strain) in 3D H9C2; test: Activity against T. cruzi (Y strain) infection of H9C2 spheroids (3D); assay type: cell-based, Trypanosoma cruzi; settings: 10 µM, seven days of incubation, 95% confidence interval in brackets
From the text: as §1
(§3) Bloodstream trypomastigotes of the Y strain (DTU II) were obtained by cardiac puncture of infected Swiss Webster mice on the parasitemia peak to perform drug sensitivity assays. Trypomastigote forms of the Tulahuen-β gal strain were collected from the supernatant of previously infected L929 cell cultures (host/parasite cell ratio 10:1). The intracellular forms T. cruzi were studied by the infection of L929 and H9C2 (2D and 3D) cell cultures infected for 48 and 24 h with trypomastigotes of Tulahuen-β gal and Y strains, respectively. The Leishmania mexicana-Cas9 T7 strain (LmexCas9) was derived from L. mexicana WT promastigotes by expression of the Streptococcus pyogenes Cas9 nuclease gene ‘Cas9′ and maintained on 32 μg/mL hygromycin [51]. This strain and the derived strains Cas9^ΔNT1 and Cas9^ΔNT1+TcrNT2 were cultured in HOMEM medium supplemented with 10% of FBS and 1% Penicillin-Streptomycin antibiotic in unvented flasks at 25 °C [52]. The Cas9^ΔNT1 strain is identical to Cas9 except that the LmexNT1.1/NT1.2 locus encoding the L. mexicana adenosine/ pyrimidine transporters was excised using Cas9 [17, 40]. Cas9^ΔNT1+TcrNT2 is the further modification of that strain by the expression of the T. cruzi nucleoside transporter 2 (TcrNT2) gene in it, using the vector pNUS-HcN [53]. Appropriate antibiotics were added for the selection and maintenance of transfectants.
3D cultures of H9C2 cells were obtained as described, and 24 h after plating, the spheroids were infected (or not, control) with bloodstream trypomastigotes of T. cruzi (strain Y), using 20 parasites per host cell. After 24 h, infected spheroids were incubated with 10 µM of the tested compounds for seven days, and then the spheroids were transferred one by one to an Eppendorf tube, with the aid of a pestle they were mechanically macerated following an established protocol with minor adaptations. The parasite load was quantified by light microscopy and qPCR [54], and the results were expressed as % of parasite death. The data results from two independent experiments performed in at least duplicate.

[4] = tested on: promastigotes of LmexCas9; test: Resazurin-based assay on LmexCas9 promastigotes; assay type: cell-based, Leishmania mexicana
Method: as §3
(§4) The EC50 values for nucleoside analogues against Leishmania mexicana promastigotes of the Cas9, Cas9^ΔNT1 and Cas9^ΔNT1+TcrNT2 strains used a resazurin-based assay, as described. Briefly, the assays were performed in standard HOMEM medium and culture conditions, in white opaque 96-well plates. For each test compound (stored as a 40 mM stock solution in 100% DMSO at −20 °C), a doubling dilution was performed over 2 rows of the plate, keeping the last well free as no-drug control with HOMEM only (23 doubling dilutions; highest concentration 100 µM). To each well, 100 µL of HOMEM containing 2 × 10^5 cells of the appropriate L. mexicana line was added, and the plates incubated for 72 h at 25 °C, followed by the addition of 20 µL of resazurin solution and further incubation for 48 h. Fluorescence was read on a FLUOstar OPTIMA plate reader (BMG Labtech, Germany), at an excitation wavelength of 544 nm and an emission wavelength of 620 nm. The EC50 values were determined by the GraphPad Prism 8.0 software using an equation for a sigmoid curve with variable slope. Pentamidine was used as positive control, and every experiment was independently performed at least 3 times independently.

[5] = tested on: promastigotes of Cas9^ΔNT1; test: Resazurin-based assay on Cas9^ΔNT1 promastigotes; assay type: cell-based, Leishmania mexicana
Method: as §3, §4

[6] = Rattus norvegicus, H9c2, 168 h, read-out: Cardiotoxic profile IC50 (µM) 3D, 3D H9C2, seven days of compound incubation
[7] = Leishmania mexicana, read-out: Cas9 EC50 (μM), promastigotes, resazurin-based assay, highest concentration 100 µM
[8] = Leishmania mexicana, read-out: Cas9^ΔNT1 EC50 (μM), promastigotes, resazurin-based assay, highest concentration 100 µM
[9] = read-out: Cardiotoxic profile IC50 (µM) 3D, 3D H9C2, seven days of compound incubation

| Structure (SMILES) | IC50 [1] | IC50 [2, 6] | % of Death Rate by Light Microscopy Quantification 3D [3] | % of Death Rate by qPCR 3D [3] | EC50 [4, 7] | EC50 [5, 8] | IC50 [2, 9] | EC50 ([4]; read-out: Cas9 EC50, promastigotes, resazurin-based assay, highest concentration 100 µM) | EC50 ([5]; read-out: Cas9^ΔNT1 EC50, promastigotes, resazurin-based assay, highest concentration 100 µM) |
| --- | --- | --- | --- | --- | --- | --- | --- | --- | --- |
| O=C(Cn1ccnc1[N+](=O)[O-])NCc1ccccc1 [Bz, Benznidazole, reference compound] | > 200 µM | > 200 µM | 98.4 (98.1 to 98.7) % | 100% |  |  |  |  |  |
| Nc1ncnc2c1c(-c1ccc(F)c(F)c1)cn2[C@@H]1O[C@H](CO)[C@@H](O)[C@H]1O [FH11706, 7-(3,4-Difluorophenyl)tubercidin] | 118 µM | > 200 µM | 91.6 (86.2 to 97) % | 85 (79 to 91) % | > 100 µM | > 100 µM |  |  |  |
| Nc1ncnc2c1c(-c1ccc(Cl)c(F)c1)cn2[C@@H]1O[C@H](CO)[C@@H](O)[C@H]1O [FH10714, 7-(3-fluoro,4-chlorophenyl)tubercidin] | 55.8 µM | 180 µM | 93.5 (93.46 to 93.54) % | 67 (38 to 96) % | > 100 µM | > 100 µM | 181 µM |  |  |
| Nc1ncnc2c1c(-c1ccc(Cl)c(Cl)c1)cn2[C@@H]1O[C@H](CO)C[C@H]1O [FH8513, 7-(3,4-dichlorophenyl)-3′-deoxytubercidin] | 22.3 µM | 199 µM | 83.8 (67.5 to 100) % | 94 (90 to 98) % | ~100 µM | ~100 µM | 200 µM | > 100 µM | 100.5 ± 0.9 µM |
